Laboratory results: patent US20150004617A1, “DNA Polymerase Activity Assays and Methods Enabling Determination of Viable Microbes” (Zeus Scientific, Inc., priority 2012, published 2015)

Legend:
DNA polymerase I = target: T1, DNA polymerase I (Escherichia coli, UniProt P00582); assay: DPE-PCR assay with purified DNA polymerase, ddCTP termination; type: biochemical; settings: dNTP mix with 50 μM ddCTP instead of 50 μM dCTP; 2×10^−9 U DNA polymerase I; 37° C., 20 minutes
T1 construct: purchased New England Biolabs M0209
Procedure: DNA Pol I (NEB cat #M0209L), Klenow (NEB cat #M0210S) and Klenow exo(−) (NEB cat #M0212S) were diluted to the indicated U/μL stock in Tris EDTA (T.E.) pH 8.0. To begin, 2 μL of DNA polymerase stock at each concentration were placed into a 50 μL polymerase assay mixture containing the following components: 50 μM dNTP, 20 mM Tris pH 8.0, 10 mM ammonium sulfate, 10 mM potassium chloride, 2 mM magnesium sulfate, 1% BSA, 0.1% Triton, 0.1% Tween, and 0.001 μM pre-annealed DNA substrate. Reactions were vortexed briefly and placed at 37° C. for 20 minutes. After 20 minutes, 3 μL of each reaction were immediately placed into a quantitative PCR (qPCR) reaction. Detection by qPCR
The qPCR reaction master mix was prepared using the following components: LightCycler 480 Master Mix (Roche cat #04707494001), 333 nM of each primer, 166 nM Target probe (FAM), 166 nM internal control probe (TxRed), and 1.2 U of UDG (Bioline cat #BIO-20744). As a tool to monitor PCR inhibition, each qPCR reaction also included 40 copies of competitive internal control DNA. […]

[1] = test system: E. coli-derived DNA polymerase activity; assay: Bead lysis-coupled DPE-PCR, ddCTP termination of microbial DNA polymerase (E. coli); type: biochemical, Escherichia coli; settings: reaction mix with 50 μM ddCTP instead of dCTP; crude bead mill lysate
Procedure: The qPCR reaction master mix was prepared using the following components: LightCycler 480 Master Mix (Roche cat #04707494001), 333 nM of each primer, 166 nM Target probe (FAM), 166 nM internal control probe (TxRed), and 1.2 U of UDG (Bioline cat #BIO-20744). As a tool to monitor PCR inhibition, each qPCR reaction also included 40 copies of competitive internal control DNA. For each qPCR reaction, 3 μL of DNA polymerase reaction were added to 27 μL of master mix and a two-step qPCR was run on a SmartCycler (Cepheid, Sunnyvale Calif.) as follows: Initial incubation of 40° C. for 10 minutes and 50° C. for 10 minutes and at 95° C. for 5 minutes (to activate Taq), followed by 45 cycles of 5 s denaturation at 95° C. and 20 s annealing/extension at 65° C. Cycle threshold (Ct) values were generated automatically by the SmartCycler software using 2nd derivative analysis of the emerging qPCR curves.
S. aureus and E. coli cultures were grown to an OD600 of 1.0±0.2 (approximately 1×10^9 cfu/mL.) For each organism, 1 mL of culture was pelleted and washed three times in T.E. Bacterial suspensions were serially diluted in T.E., and 5 μL of each stock were added to bead lysis-reactions containing 50 μL of lysis-reaction buffer. […]

T1 sequence (P00582 whole entry): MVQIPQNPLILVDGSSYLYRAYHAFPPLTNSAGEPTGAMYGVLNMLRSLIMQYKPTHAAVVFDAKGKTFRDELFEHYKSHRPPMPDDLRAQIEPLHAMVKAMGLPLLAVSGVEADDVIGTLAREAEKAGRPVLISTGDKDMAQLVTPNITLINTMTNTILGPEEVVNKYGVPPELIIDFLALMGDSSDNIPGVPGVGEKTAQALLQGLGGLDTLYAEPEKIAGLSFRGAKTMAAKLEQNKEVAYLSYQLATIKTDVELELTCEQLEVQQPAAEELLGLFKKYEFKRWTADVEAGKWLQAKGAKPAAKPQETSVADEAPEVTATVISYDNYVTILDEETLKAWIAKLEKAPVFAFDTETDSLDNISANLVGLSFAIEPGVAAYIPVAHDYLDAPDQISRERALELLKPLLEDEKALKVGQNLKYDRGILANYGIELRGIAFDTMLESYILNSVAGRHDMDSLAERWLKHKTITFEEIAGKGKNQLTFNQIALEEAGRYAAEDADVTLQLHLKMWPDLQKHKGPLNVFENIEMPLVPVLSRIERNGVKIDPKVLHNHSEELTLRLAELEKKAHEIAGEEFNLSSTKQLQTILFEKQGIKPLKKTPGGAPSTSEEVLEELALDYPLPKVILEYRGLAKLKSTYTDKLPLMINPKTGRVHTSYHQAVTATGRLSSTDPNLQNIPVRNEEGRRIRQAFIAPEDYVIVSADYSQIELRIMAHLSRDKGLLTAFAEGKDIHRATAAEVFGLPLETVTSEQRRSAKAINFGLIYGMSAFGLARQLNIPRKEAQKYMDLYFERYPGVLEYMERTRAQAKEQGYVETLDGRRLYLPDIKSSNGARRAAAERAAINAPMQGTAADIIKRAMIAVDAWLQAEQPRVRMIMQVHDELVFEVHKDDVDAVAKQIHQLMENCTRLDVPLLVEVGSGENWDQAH

## Nc1ccn([C@H]2CC[C@@H](COP(=O)(O)OP(=O)(O)OP(=O)(O)O)O2)c(=O)n1 [ddCTP, dideoxyCTP]
DNA polymerase I
  DPE-PCR assay signal (DNA polymerase extension activity): eliminates signal generated by DNA polymerase I
[1]
  DPE-PCR signal derived from E. coli cfu spikes: blocked the generation of signal derived from E. coli cfu spikes
